Laboratory results published in ChEMBL document CHEMBL1201862, “PubChem BioAssay data set” (2004).
Active and inactive are the calls of the source.

Key:
[1] = molecular target: Mitochondrial peptide methionine sulfoxide reductase (Bos taurus, UniProt P54149); type: functional;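 further: absorbance read-out, biochemical high-throughput dose-response screen for MsrA inhibitors, confirmatory; recombinant bovine MsrA coupled to E. coli TrxB with NADPH and selenocystamine; potency is for inhibitors of MsrA activity on DMSO substrate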
[2] = molecular target: G-protein coupled receptor 55 (Homo sapiens, UniProt Q9Y2T6); test: inhibition of LPI-stimulated GPR55 beta-arrestin translocation – imaging, U2OS, beta-arrestin-GFP, LPI agonist, primary screen (AID 2013); type: functional;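 further: antagonist potency measured as reduced agonist-driven arrestin aggregation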
[3] = molecular target: T1, Carboxy-terminal domain RNA polymerase II polypeptide A small phosphatase 1 (Homo sapiens, UniProt Q9GZU7); test: CTDSP1 inhibitors, concentration-response, biochemical, absorbance readout, ultra-high-throughput screen actives (AID 540297); type: functional
T1 sequence (Q9GZU7 whole entry): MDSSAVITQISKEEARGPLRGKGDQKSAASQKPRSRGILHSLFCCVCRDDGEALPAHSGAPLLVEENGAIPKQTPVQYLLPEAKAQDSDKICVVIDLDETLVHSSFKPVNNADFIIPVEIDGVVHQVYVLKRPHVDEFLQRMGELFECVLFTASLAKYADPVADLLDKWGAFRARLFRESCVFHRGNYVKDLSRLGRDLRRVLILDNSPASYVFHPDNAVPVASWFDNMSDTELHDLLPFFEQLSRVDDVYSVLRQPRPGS

[4] = molecular target: T2, Histone-lysine N-methyltransferase NSD2 (Homo sapiens, UniProt O96028); type: biochemical
T2 sequence (O96028 whole entry): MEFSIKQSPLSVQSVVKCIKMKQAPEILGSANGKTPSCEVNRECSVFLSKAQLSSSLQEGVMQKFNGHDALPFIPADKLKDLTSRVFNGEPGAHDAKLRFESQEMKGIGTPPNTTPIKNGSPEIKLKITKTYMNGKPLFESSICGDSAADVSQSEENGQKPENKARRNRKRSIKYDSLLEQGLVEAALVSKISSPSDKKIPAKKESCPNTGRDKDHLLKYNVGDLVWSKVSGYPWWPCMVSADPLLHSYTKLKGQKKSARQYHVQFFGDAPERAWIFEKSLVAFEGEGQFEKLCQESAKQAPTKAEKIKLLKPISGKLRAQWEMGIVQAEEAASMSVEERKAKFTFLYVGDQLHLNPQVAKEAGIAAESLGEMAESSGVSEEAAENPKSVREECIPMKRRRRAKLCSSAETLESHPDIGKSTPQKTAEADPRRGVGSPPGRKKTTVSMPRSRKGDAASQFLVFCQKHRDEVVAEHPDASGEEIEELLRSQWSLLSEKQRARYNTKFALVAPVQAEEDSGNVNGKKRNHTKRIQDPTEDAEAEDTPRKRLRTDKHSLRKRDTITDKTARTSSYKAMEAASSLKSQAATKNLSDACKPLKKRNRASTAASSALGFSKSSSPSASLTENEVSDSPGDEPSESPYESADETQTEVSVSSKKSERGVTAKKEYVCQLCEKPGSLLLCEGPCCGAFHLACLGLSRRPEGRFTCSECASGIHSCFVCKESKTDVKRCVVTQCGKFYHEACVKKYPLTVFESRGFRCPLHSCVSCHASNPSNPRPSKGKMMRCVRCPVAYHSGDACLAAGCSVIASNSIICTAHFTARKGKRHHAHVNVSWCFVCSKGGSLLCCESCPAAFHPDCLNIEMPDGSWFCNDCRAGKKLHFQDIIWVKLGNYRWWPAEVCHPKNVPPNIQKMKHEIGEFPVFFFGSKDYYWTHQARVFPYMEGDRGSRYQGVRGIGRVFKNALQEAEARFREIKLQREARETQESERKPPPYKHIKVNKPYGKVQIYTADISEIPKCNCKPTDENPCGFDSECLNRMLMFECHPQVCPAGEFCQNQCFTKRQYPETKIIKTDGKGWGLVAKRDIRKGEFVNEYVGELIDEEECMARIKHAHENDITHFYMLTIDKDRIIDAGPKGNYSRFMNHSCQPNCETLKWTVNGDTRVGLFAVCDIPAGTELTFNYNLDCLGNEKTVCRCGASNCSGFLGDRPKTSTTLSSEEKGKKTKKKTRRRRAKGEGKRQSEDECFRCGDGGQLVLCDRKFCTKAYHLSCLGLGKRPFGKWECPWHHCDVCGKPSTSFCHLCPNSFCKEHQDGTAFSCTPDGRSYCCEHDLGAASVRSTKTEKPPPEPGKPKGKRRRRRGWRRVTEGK

[5] = molecular target: 72 kDa type IV collagenase (Homo sapiens, UniProt P08253); test: Dose Response validation of uHTS RPN11 inhibitor hits using a MMP-2 Fluorescence assay.; type: functional
[6] = molecular target: Prothrombin (Bos taurus, UniProt P00735); test: thrombin protease inhibitors – biochemical, fluorescence polarization, uHTS hits, dose response (AID 602369); type: functional
[7] = molecular target: DNA (cytosine-5)-methyltransferase 1 (Homo sapiens, UniProt P26358); test: inhibition of DNA methylation by DNMT1 – biochemical, fluorescent molecular beacon, confirmation (AID 602386); type: functional
[8] = molecular target: 26S proteasome non-ATPase regulatory subunit 14 (Homo sapiens, UniProt O00487); test: inhibition of proteasome subunit RPN11 – biochemical, fluorescence polarization, uHTS hits, confirmation (AID 602368); type: functional
[9] = molecular target: Aryl hydrocarbon receptor (Homo sapiens, UniProt P35869); settings: Potency;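 further: confirmatory quantitative high-throughput screen measuring activation of the AhR signaling pathway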
[10] = molecular target: Ras and Rab interactor 1/Tyrosine-protein kinase ABL1 (Homo sapiens, UniProt P00519+Q13671); type: functional;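 further: biochemical TR-FRET dose-response test measuring inhibition of binding between Rin1 and Abl proteins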
[11] = activation of miR-122 Renilla sensor silencing – cell-based, Huh7 psiCHECK-miR122, Renilla luciferase, cherry-picked, dose response (AID 651956); type: functional;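 further: huh7 hepatoma cells stably carrying a psiCHECK-2 miR-122 sensor plasmid; renilla luciferase signal reporting endogenous miR-122 activity after 48 h compound exposure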
[12] = molecular target: T3, ATP-dependent translocase ABCB1 (Homo sapiens, UniProt P08183); test: P-gp JC-1 efflux blockade concentration-response – Jurkat-DNR cells, flow cytometry, set 2, dose response (AID 504569); type: functional; settings: read-out: EC50_MICROM_;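 further: potency of pump inhibitors that raise cellular JC-1 green fluorescence up to the nicardipine level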
[13] = molecular target: T3, ATP-dependent translocase ABCB1; test: inhibition of BCRP-mediated JC-1 efflux – Ig-MXP3 cells, flow cytometry, set 2, dose response (AID 504566); type: functional; settings: read-out: EC50_MICROM_;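 further: flow cytometry median green fluorescence of retained JC-1 dye; potency of efflux pump inhibition measured as rising substrate retention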
[14] = molecular target: T4, Small ubiquitin-related modifier 1 (Homo sapiens, UniProt P63165); test: SUMO1 protein interaction blockers, potency – biochemical, fluorescence polarization, uHTS hits, dose response (AID 624382); type: functional; settings: read-out: IC50_Mean
[15] = molecular target: Arf-GAP with SH3 domain, ANK repeat and PH domain-containing protein 1 (Homo sapiens, UniProt Q9ULH1); type: functional;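 further: biochemical fluorescence polarization dose–response screen measuring inhibition of ASAP1; ASAP1 GAP domain stimulating GTP hydrolysis by truncated human ARF1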
[16] = molecular target: T4, Small ubiquitin-related modifier 1; test: SUMO1 protein-protein binding blockers, potency – biochemical, FRET, dose response (AID 624383); type: functional; settings: read-out: IC50_Mean

T4 sequence (P63165 whole entry, the tested form may be a part): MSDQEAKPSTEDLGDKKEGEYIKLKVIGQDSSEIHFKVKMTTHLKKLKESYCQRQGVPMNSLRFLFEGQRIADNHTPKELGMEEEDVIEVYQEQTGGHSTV
T3 sequence (P08183 whole entry): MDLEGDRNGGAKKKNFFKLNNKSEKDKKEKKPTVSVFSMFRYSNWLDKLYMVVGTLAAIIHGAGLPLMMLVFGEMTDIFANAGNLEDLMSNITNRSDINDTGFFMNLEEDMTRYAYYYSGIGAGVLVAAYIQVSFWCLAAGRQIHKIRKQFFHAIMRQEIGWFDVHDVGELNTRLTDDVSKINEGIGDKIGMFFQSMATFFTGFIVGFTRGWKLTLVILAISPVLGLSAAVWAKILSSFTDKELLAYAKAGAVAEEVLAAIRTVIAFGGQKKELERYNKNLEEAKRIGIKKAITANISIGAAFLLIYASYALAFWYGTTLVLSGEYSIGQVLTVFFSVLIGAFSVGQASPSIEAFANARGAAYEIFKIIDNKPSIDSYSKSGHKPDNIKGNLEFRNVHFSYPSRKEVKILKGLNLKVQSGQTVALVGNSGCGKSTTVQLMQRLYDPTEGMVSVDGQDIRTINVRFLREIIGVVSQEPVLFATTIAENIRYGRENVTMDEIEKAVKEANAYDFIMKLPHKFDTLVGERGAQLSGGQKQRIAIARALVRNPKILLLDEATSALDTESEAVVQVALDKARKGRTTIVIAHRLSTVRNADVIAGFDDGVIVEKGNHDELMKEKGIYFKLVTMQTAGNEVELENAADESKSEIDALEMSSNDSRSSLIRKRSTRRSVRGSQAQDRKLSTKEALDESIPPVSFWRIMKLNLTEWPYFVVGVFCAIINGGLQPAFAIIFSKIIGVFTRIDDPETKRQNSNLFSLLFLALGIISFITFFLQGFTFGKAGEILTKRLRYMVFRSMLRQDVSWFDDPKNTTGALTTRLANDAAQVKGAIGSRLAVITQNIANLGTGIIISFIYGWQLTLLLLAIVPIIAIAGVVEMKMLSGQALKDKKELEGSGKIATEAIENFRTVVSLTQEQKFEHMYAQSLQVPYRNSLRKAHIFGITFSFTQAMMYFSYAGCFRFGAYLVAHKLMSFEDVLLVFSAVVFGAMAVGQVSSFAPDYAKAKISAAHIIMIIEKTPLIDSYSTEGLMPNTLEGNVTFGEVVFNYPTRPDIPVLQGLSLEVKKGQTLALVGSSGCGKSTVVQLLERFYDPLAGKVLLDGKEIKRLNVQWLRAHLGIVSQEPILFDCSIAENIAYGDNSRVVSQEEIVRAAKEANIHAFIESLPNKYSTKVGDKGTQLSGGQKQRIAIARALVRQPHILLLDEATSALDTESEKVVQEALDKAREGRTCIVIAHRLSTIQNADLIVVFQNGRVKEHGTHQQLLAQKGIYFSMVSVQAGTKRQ
Chain of 26S proteasome non-ATPase regulatory subunit 14 (O00487 whole entry): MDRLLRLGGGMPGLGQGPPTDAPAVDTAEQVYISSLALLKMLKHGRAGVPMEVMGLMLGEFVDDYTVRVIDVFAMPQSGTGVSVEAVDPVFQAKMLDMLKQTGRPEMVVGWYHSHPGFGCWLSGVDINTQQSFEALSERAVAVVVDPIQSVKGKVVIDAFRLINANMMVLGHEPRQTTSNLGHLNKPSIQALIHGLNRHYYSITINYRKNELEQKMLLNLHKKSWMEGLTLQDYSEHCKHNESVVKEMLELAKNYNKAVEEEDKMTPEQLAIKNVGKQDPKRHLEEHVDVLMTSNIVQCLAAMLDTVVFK
Chain of Arf-GAP with SH3 domain, ANK repeat and PH domain-containing protein 1 (Q9ULH1 whole entry, the tested form may be a part): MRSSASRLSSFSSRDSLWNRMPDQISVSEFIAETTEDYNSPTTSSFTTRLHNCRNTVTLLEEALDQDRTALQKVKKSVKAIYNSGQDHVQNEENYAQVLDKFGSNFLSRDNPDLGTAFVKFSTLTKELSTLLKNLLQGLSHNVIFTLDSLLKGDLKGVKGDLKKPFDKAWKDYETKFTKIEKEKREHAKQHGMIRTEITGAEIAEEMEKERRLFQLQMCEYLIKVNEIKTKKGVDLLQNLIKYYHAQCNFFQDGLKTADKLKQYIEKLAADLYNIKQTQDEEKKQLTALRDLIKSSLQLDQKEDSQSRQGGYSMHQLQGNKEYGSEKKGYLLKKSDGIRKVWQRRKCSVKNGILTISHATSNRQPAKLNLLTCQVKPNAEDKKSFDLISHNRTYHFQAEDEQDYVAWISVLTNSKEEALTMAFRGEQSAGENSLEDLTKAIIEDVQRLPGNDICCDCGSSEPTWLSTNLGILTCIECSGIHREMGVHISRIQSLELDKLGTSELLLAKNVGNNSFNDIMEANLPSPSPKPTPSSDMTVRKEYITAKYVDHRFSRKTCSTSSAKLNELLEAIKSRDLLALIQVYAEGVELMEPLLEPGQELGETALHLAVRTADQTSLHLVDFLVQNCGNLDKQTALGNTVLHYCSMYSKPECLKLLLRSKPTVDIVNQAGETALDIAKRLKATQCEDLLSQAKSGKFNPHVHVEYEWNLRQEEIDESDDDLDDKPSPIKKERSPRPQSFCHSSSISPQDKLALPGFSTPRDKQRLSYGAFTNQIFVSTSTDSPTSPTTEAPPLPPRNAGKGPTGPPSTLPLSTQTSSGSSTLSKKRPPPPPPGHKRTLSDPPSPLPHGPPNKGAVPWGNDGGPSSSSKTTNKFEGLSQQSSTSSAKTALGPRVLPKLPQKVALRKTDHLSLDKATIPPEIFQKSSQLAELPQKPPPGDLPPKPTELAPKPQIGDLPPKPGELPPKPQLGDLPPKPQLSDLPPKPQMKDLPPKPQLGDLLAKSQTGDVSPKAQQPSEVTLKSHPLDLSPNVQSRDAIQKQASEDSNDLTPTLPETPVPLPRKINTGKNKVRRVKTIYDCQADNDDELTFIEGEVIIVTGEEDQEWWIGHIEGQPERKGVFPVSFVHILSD
Chain of G-protein coupled receptor 55 (Q9Y2T6 whole entry, the tested form may be a part): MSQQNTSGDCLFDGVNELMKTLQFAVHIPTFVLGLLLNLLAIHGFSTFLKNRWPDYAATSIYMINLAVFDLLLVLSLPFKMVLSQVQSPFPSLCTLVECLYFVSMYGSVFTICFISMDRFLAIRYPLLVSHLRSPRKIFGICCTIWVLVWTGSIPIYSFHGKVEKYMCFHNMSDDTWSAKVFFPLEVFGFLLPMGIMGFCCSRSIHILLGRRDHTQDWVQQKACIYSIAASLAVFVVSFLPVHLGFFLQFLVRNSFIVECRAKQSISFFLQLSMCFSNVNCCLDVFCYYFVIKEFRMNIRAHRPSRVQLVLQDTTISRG
Chain of Ras and Rab interactor 1/Tyrosine-protein kinase ABL1 (P00519 whole entry): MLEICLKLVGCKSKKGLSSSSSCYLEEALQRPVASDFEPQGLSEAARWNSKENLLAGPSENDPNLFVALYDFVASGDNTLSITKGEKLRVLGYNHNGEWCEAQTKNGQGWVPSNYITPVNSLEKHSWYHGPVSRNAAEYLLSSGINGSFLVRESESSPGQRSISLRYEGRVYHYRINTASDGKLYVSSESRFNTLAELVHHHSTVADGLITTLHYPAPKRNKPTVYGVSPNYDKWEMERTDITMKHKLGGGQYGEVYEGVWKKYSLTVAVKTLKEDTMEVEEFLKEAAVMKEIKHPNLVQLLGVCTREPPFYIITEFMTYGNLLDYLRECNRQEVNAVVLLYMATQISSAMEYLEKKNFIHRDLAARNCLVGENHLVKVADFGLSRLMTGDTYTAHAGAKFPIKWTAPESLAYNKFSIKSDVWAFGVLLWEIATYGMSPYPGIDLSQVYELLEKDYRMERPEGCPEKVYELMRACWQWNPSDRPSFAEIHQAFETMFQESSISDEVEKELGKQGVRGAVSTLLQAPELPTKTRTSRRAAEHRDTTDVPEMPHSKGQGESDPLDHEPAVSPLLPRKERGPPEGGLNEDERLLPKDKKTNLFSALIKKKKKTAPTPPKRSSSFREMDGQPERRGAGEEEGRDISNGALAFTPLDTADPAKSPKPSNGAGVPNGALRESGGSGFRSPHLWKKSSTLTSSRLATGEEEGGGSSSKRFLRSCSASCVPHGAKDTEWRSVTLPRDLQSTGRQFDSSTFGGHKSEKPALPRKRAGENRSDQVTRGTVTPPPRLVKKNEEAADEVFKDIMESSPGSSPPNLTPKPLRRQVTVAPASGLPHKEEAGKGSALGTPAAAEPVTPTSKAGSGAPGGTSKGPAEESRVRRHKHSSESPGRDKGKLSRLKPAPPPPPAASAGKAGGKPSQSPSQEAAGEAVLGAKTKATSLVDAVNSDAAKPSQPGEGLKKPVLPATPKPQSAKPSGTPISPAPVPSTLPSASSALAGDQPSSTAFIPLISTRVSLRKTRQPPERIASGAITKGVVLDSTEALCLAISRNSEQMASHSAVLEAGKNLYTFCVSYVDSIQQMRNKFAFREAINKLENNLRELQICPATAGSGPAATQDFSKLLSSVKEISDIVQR
Chain of Ras and Rab interactor 1/Tyrosine-protein kinase ABL1 (Q13671 whole entry): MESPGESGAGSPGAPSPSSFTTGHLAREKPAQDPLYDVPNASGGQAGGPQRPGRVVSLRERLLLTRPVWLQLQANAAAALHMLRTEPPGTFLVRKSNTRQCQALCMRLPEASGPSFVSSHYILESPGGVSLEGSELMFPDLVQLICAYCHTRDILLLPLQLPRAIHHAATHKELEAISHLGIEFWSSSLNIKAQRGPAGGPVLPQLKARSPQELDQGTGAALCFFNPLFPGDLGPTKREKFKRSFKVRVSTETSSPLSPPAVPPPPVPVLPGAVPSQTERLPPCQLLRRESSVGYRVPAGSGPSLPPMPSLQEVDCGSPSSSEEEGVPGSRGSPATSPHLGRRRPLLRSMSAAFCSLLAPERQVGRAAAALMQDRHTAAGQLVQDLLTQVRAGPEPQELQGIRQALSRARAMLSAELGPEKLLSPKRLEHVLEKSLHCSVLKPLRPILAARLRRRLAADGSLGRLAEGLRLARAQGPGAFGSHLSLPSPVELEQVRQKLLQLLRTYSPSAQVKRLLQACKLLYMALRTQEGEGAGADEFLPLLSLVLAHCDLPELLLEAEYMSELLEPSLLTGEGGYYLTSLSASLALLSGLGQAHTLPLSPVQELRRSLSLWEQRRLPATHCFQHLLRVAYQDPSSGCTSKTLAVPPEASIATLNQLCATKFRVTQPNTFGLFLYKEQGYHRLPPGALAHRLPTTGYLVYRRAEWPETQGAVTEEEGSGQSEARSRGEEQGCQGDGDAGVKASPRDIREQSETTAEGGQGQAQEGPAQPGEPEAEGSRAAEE

Sc1nnc(C2CCCCC2)n1/N=C/c1ccccc1Br
IC50 [1]: 155 µM (inactive)

COc1ccc(CN2C(=O)NC(=O)/C(=C\c3ccco3)C2=O)cc1
IC50 [2]: 3.34 µM (active) | IC50 [3]: 3.91 µM (active) | AC50 [4]: 12.8 µM (active) | IC50 [5]: 12.7 µM (active) | IC50 [6]: 54.1 µM (active) | IC50 [7]: 12.3 µM (active) | IC50 [8]: 26.5 µM (active)

O=C(O)C1(C(=O)Nc2ccc(Cl)cc2Cl)CC1
AC50 [9]: 50.1 µM (inconclusive)

CCN(CC(=O)Nc1ccc(NC(C)=O)cc1)C(=O)c1ccccc1SCc1c(C)noc1C
IC50 [10]: 2.22 µM (active)

CNC(=O)C[C@@H]1CC[C@@H]2[C@@H](COc3ccc(NC(=O)Nc4ccc(F)c(F)c4)cc3C(=O)N2C)O1
AC50 [11]: 4.95 µM (active)

O=C(c1ccoc1)N1CCN(c2cc(-c3ccccc3)nc3cc(-c4ccccc4)nn23)CC1
EC50 [12]: 1.79 µM (active) | EC50 [13]: 2.02 µM (active)

COc1cc(/C=N/NC(=O)c2ccc(O)cc2)ccc1OCC(=O)Nc1cccc([N+](=O)[O-])c1
IC50 [14]: > 66.6 µM (inactive) | IC50 [15]: 25.3 µM (inactive) | IC50 [16]: 3.86 µM (active)
